Measurements reported in patent US10189845B2, “4,6-substituted-pyrazolo[1,5-a]pyrazines as janus kinase inhibitors” (ARRAY BIOPHARMA INC., priority 2014, dated 2019).
Where two headings read alike, the source gives them in different places.

Assays:
Format in all cases: biochemical
Human Tyk2 kinase domain = Human Tyk2 kinase domain (Homo sapiens (Human), UniProt P29597); test: Tyk2 Inhibition Assay (Example A, Omnia kinase fluorescence peptide substrate assay); settings: TYK2 Enzyme IC50 1 mM ATP, averaged IC50 ranges
Chain of Human Tyk2 kinase domain (P29597 886-1187): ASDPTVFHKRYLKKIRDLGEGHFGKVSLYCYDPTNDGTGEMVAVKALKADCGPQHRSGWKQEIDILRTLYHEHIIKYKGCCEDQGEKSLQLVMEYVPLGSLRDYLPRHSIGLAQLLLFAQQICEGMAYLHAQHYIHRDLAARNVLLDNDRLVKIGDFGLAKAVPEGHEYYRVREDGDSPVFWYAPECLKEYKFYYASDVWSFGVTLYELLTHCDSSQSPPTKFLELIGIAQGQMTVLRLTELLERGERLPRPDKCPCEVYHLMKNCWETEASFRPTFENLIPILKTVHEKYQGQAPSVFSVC
Method in brief: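 IC50 values come from a 4-parameter logistic fit of percent-of-control data, with compounds at 2% final DMSO. Reactions held 1 nM His-tag-cleaved Tyk2 (aa 886–1187), 8 μM Omnia Y12 peptide and 1 mM ATP in pH 7.4 HEPES buffer with 10 mM MgCl2, Triton X-100 and DTT. Sox fluorescence (360/485 nm) was monitored kinetically over 45 min.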

JAK1 = JAK1 (Homo sapiens (Human), UniProt P23458); test: JAK1 Inhibition Assay (Example B, Omnia kinase fluorescence peptide substrate assay)
Chain of JAK1 (P23458 whole entry): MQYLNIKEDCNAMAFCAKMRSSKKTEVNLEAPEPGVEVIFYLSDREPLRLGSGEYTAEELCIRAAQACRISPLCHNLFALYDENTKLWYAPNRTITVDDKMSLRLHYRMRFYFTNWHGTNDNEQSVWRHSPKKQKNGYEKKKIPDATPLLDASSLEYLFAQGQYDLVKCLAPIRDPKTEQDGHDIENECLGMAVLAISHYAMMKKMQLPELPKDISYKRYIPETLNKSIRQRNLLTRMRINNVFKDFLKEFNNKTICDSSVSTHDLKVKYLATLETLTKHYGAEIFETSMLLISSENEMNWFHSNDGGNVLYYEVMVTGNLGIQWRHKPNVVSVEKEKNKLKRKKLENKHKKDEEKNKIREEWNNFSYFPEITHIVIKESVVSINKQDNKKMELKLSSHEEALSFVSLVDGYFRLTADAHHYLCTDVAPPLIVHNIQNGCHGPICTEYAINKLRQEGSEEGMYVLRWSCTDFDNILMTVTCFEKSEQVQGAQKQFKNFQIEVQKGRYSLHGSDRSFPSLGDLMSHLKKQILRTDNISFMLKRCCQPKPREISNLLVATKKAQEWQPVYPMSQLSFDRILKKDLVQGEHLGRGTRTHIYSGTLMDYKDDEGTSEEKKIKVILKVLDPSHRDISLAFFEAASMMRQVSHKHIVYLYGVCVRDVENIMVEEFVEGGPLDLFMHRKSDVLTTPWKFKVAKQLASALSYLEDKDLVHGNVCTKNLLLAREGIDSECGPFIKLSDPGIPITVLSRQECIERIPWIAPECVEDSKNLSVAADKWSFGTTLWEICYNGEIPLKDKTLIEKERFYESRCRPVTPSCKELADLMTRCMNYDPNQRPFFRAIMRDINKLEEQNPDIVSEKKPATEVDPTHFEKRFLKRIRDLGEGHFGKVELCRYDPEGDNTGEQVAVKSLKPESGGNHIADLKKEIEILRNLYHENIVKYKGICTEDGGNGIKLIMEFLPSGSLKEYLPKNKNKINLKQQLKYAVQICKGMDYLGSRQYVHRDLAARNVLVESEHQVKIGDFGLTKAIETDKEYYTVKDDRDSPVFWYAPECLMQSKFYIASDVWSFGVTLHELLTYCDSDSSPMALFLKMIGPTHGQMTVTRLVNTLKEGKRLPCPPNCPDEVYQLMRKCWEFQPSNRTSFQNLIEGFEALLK
Method in brief: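 Kinetic fluorescence read (360 nm excitation, 485 nm emission, every 50 s over 45 min) of Omnia Y12 peptide (8 μM) phosphorylation by 12.5 nM human JAK1 at 1 mM ATP. Buffer: HEPES pH 7.4, MgCl2, Triton X-100, DTT; 2% DMSO. IC50 = concentration giving 50 POC on logistic curve.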

JAK2 = JAK2 (Homo sapiens (Human), UniProt O60674); test: JAK2 Inhibition Assay (Example C, Omnia kinase fluorescence peptide substrate assay); settings: JAK2 Enzyme IC50 1 mM ATP, averaged IC50 ranges
Chain of JAK2 (O60674 whole entry): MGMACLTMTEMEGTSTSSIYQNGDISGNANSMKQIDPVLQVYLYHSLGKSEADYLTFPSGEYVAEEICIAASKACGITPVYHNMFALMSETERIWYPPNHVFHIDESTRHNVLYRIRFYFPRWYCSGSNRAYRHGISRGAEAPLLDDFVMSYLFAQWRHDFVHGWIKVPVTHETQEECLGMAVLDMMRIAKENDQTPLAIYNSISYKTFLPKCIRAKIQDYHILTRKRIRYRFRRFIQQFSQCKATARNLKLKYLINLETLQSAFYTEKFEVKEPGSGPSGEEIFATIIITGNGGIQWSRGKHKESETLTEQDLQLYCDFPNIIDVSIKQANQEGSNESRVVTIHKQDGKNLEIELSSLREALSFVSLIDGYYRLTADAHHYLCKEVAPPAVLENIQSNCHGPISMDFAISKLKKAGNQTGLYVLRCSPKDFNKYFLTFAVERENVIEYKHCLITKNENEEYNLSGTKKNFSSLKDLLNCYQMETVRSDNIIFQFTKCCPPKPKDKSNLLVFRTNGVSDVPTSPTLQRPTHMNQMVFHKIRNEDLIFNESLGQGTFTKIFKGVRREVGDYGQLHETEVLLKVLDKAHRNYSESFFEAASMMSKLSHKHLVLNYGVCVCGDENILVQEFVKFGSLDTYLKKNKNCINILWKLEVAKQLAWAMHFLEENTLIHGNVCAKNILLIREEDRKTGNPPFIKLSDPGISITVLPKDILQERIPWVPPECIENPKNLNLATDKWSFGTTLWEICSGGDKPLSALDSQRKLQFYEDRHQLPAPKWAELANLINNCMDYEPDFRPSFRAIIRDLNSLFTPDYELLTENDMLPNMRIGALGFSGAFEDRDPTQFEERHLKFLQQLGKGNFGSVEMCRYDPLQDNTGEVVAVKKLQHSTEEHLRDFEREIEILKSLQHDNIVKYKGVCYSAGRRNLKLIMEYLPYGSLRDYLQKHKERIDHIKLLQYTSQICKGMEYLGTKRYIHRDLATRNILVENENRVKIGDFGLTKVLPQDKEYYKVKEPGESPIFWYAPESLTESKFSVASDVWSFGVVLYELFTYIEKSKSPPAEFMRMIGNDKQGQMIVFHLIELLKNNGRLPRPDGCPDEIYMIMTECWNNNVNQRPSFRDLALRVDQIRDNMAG
Method in brief: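 Kinetic fluorescence read of Omnia Y7 peptide (10 μM) phosphorylation, ex 360/em 485 nm every 50 s over 45 min, by 4 nM JAK2 at 1 mM ATP. Buffer 25 mM HEPES pH 7.4, 10 mM MgCl2, 0.01% Triton X-100, 1 mM DTT; final DMSO 2%. Percent-of-control values fitted by 4-parameter logistic for IC50.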

JAK3 = JAK3 (Homo sapiens (Human), UniProt P52333); test: JAK3 Inhibition Assay (Example D, Omnia kinase fluorescence peptide substrate assay)
Chain of JAK3 (P52333 whole entry): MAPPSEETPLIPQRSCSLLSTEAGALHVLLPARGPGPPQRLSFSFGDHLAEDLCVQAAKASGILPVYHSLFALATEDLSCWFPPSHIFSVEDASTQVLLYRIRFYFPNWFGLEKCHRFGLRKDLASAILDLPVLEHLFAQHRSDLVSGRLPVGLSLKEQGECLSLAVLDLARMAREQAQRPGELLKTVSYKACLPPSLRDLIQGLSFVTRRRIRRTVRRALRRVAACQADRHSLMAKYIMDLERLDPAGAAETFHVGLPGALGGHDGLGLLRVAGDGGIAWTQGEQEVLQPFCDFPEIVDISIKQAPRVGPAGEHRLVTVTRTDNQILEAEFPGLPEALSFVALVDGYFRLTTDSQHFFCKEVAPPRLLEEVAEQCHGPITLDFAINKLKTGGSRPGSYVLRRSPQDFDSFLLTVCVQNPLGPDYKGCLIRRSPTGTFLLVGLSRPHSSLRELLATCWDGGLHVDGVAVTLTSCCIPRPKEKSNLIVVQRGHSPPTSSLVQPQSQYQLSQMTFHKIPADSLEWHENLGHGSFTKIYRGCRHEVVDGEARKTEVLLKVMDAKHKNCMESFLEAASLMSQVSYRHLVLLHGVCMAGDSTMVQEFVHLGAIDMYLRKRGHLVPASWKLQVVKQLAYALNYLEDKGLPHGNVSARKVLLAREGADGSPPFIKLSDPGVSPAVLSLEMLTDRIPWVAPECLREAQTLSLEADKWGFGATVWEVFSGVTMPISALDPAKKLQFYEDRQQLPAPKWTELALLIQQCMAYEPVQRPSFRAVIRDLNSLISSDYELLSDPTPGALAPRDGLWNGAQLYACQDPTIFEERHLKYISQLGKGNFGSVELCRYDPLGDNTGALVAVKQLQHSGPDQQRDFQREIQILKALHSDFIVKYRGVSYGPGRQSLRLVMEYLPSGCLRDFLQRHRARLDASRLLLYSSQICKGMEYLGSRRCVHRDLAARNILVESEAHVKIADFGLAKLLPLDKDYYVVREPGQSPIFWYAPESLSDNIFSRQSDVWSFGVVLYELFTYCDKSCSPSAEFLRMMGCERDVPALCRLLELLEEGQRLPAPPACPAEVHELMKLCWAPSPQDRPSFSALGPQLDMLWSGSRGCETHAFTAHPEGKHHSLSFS
Method in brief: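 Omnia Sox-peptide kinetic read (ex 360 nm, em 485 nm, every 50 s over 45 min) tracked phosphorylation of 10 μM Y7 peptide by 2 nM recombinant JAK3 at 1 mM ATP. Buffer: 25 mM HEPES pH 7.4, 10 mM MgCl2, 0.01% Triton X-100, 1 mM DTT, with 2% DMSO final.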

| SMILES | IC50 (Human Tyk2 kinase domain) [nM] | IC50 (JAK1) [nM] | IC50 (JAK2) [nM] | IC50 (JAK3) [nM] | IC50 (JAK1; JAK1 Enzyme IC50 1 mM ATP, 1 mM ATP, averaged IC50 ranges) [nM] |
| --- | --- | --- | --- | --- | --- |
| CCC(CC)n1cc(-c2nc(-c3cnn(CCNC4CC(CO)C4)c3)cn3nccc23)cn1 (centres unmarked) [Example 145, (3-((2-(4-(4-(1-(pentan-3-yl)-1H-pyrazol-4-yl)pyrazolo[1,5-a]pyrazin-6-yl)-1H-pyrazol-1-yl)ethyl)amino)cyclobutyl)methanol] | 100 to 1000 | 100 to 1000 | 10 to 100 | 1000 to 10000 |  |
| CCC(CC)n1cc(-c2nc(-c3cnn(CC(=O)NC(C)C)c3)cn3nccc23)cn1 [Example 97, N-isopropyl-2-(4-(4-(1-(pentan-3-yl)-1H-pyrazol-4-yl)pyrazolo[1,5-a]pyrazin-6-yl)-1H-pyrazol-1-yl)acetamide] | 10 to 100 | 100 to 1000 | 100 to 1000 | 1000 to 10000 |  |
| CCC(CC)n1cc(-c2nc(-c3cnn(CC(=O)N4CCOCC4)c3)cn3nccc23)cn1 [Example 6, 1-morpholino-2-(4-(4-(1-(pentan-3-yl)-1H-pyrazol-4-yl)pyrazolo[1,5-a]pyrazin-6-yl)-1H-pyrazol-1-yl)ethanone] | 10 to 100 | 10 to 100 | 10 to 100 | 1000 to 10000 |  |
| CCC(CC)n1cc(-c2nc(-c3cnn(CC(O)CC(F)(F)F)c3)cn3nccc23)cn1 (centres unmarked) [Example 111, 4,4,4-trifluoro-1-(4-(4-(1-(pentan-3-yl)-1H-pyrazol-4-yl)pyrazolo[1,5-a]pyrazin-6-yl)-1H-pyrazol-1-yl)butan-2-ol] | 10 to 100 | 100 to 1000 | 10 to 100 | 1000 to 10000 |  |
| CCC(CC)n1cc(-c2nc(-c3cnn(CCN4CCNC(=O)C4)c3)cn3nccc23)cn1 [Example 144, 4-(2-(4-(4-(1-(pentan-3-yl)-1H-pyrazol-4-yl)pyrazolo[1,5-a]pyrazin-6-yl)-1H-pyrazol-1-yl)ethyl)piperazin-2-one] | 10 to 100 | 100 to 1000 | 10 to 100 | 1000 to 10000 |  |
| CCC(CC)n1cc(-c2nc(-c3cnn(CCN4CC[C@@H](O)C4)c3)cn3nccc23)cn1 [Example 140, (R)-1-(2-(4-(4-(1-(pentan-3-yl)-1H-pyrazol-4-yl)pyrazolo[1,5-a]pyrazin-6-yl)-1H-pyrazol-1-yl)ethyl)pyrrolidin-3-ol] | 10 to 100 | 1000 to 10000 | 10 to 100 | 1000 to 10000 |  |
| CCC(CC)n1cc(-c2nc(-c3cnn(C4CN(C(=O)CO)C4)c3)cn3nccc23)cn1 [compound 174, 2-hydroxy-1-(3-(4-(4-(1-(pentan-3-yl)-1H-pyrazol-4-yl)pyrazolo[1,5-a]pyrazin-6-yl)-1H-pyrazol-1-yl)azetidin-1-yl)ethanone] | 10 to 100 | 100 to 1000 | 10 to 100 | 1000 to 10000 |  |
| CC[C@@H](n1cc(-c2nc(-c3cnn(C[C@@H](O)CO)c3)cn3nccc23)cn1)C(C)(F)F (single isomer, unassigned) [Example 199] | 100 to 1000 |  | 100 to 1000 | 1000 to 10000 | 1000 to 10000 |
